# “Also recorded” adds a separate entry of the source.
# What was measured:
# AMPK β2 WT isoform = test: pACC HTRF assay in AMPKβ1/β2 double knockout U-2 OS cells stably expressing β2 WT; format: cell-based, human; conditions: varying concentrations
# Procedure: (§1) AMPKβ1/β2 double knockout cells were used and re-introduced the expression of human β1 WT or β2 WT isoforms. […] Cells stably expressing β1 WT or β2 were treated with varying concentrations of Compound 1 and subjected to the pACC HTRF (Cisbio) assay to determine the level of phosphorylation of the AMPK substrate, ACC, in cell lysates, as in Example 1.
# This activation profile is characteristic of activators that bind to the ADaM site and consistent with previous studies showing that ADaM-site activators have poorer activation of β2-containing complexes in vitro and in cells.
# AMPK = test: pACC HTRF assay in U-2 OS Flp-In T-REx cells; format: cell-based; conditions: 30 mins, varying concentrations, HTRF 665 nm/620 nm ratio
# Procedure: U-2 OS Flp-In T-REx cells were seeded at 50 K in a 96-well plate and left overnight at 37 C in DMEM GlutaMAX (Thermo Fisher Scientific) supplemented with 10% (vol/vol) FBS and 100 U/ml penicillin G, and 100 μg/ml streptomycin. Cells were treated for 30 mins with varying concentrations of Compound 1 in media lacking FBS and then cells were lysed in 50 μl of Cisbio lysis buffer #1 supplemented with blocking solution as per the manufacturer's protocol (Cisbio). Cells were lysed for 30 mins at room temperature before 16 μl of lysate was incubated with 4 μl of the HTRF antibodies (1:40 dilution of the acceptor and donor (p)ACC antibodies, as per the manufacturers protocol). Lysates were incubated overnight with the antibodies before 665 nm/620 nm ratio was determined using a MolecularDevices i3 plate reader (with a HTRF cartridge add-on).
# Phosphorylation of ACC is widely used as a cellular indicator of AMPK activity.
# AMPK β1 WT = test: pACC HTRF assay in AMPKβ1/β2 double knockout U-2 OS cells stably expressing β1 WT; format: cell-based, human; conditions: varying concentrations
# From the text: (§2) AMPKβ1/β2 double knockout U-2 OS Flp-In™ T-Rex™ cell lines were generated by Horizon Discovery (Cambridge, UK). Cells were genotyped and analysed by western blotting to confirm that there was a complete knockout of AMPKβ1/β2. We took these AMPKβ1/β2 double knockout cells, and re-introduced the expression of human β1 wild-type (WT) or a […] Serine 108 to alanine mutation (S108A). This was achieved using the Flp-In™ system (Invitrogen) present in this cell line and stable cells expressing β1 WT or a β1 S108A mutant were generated according to the manufacturers' protocols. Re-expression of the β1 subunit was confirmed by Western blot analysis.
# (§3) Cells stably expressing β1 WT or a β1 S108A mutant were treated with varying concentrations of Compound 1 and subjected to the pACC HTRF (Cisbio) assay to determine the level of phosphorylation of the AMPK substrate, ACC, in cell lysates.
# as §1
# [1] = system: AMPK β1 S108A mutant (ADaM-binding site mutant); test: pACC HTRF assay in AMPKβ1/β2 double knockout U-2 OS cells stably expressing β1 S108A mutant; format: cell-based, human; conditions: varying concentrations
# From the text: as §2, §3
structure (smiles),measurement,setting,value
"COc1cc(O)c2c(c1)c(=O)oc1cc(O)ccc12 [Compound 1, 3,10-Dihydroxy-8-methoxy-6H-benzo[c]chromen-6-one]","phosphorylation of the AMPK substrate, ACC (pACC); AMPK activation",AMPK β2 WT isoform,does not activate AMPK; also recorded: not able to increase pACC
same,"phosphorylation of the AMPK substrate, ACC (pACC)",AMPK,"increases the phosphorylation of the AMPK substrate, ACC, in a dose-dependent manner"
same,"phosphorylation of the AMPK substrate, ACC (pACC); AMPK activation",AMPK β1 WT,activates AMPK; also recorded: able to dose-dependently increase pACC
same,"phosphorylation of the AMPK substrate, ACC (pACC); AMPK activation",[1],does not activate AMPK; also recorded: not able to increase pACC

# — patent publication US20230048350A1, “BENZOCOUMARIN AMPK ACTIVATOR COMPOUNDS, COMPOSITIONS, METHODS AND USES THEREOF” (SOCIETE DES PRODUITS NESTLE S.A., priority 2019, published 2023)
